Measured values as given in patent US12246007B2, “Liquid bendamustine pharmaceutical compositions” (HOSPIRA AUSTRALIA PTY LTD, priority 2018, dated 2025).
Counter-ions that a name gives are not always drawn. Like-named read-outs stand apart in the source and are kept apart here.

Assay: Solubility of bendamustine HCl in organic solvents (T0 assay after overnight rolling and filtration)
Assay type: physicochemical
Description: An initial study was performed to assess bendamustine HCl solubility and brief stability in various organic solvents. Amounts of approximately 415.4 mg bendamustine HCl API (active pharmaceutical ingredient) were weighed into 4 mL amber glass vials. 2 mL of each indicated test solvent was added to two of each of the vials. One of each set of two vials containing the same solvent was placed on a sample roller at 2-8° C., and the other vial in each set was placed on a sample roller at laboratory temperature overnight. The following day, the solution from each vial was filtered through a Pall, 0.2 μm Fluorodyne II (Hydrophilic modified PVDF) syringe filter into a fresh 4 mL amber glass vial.

In the case of `Cn1c(CCCC(=O)O)nc2cc(N(CCCl)CCCl)ccc21` [Bendamustine HCl, 1H-benzimidazole-2-butanoic acid, 5-[bis(2-chloroethyl)amino]-1-methyl, monohydrochloride], the solubility (2 °C, organic solvent or mixture, thermodynamic from solid, 1-methyl-2-pyrrolidinone, 2-8° C., read-out: Solubility) is reported as 181 mg/mL, the solubility (2 °C, organic solvent or mixture, thermodynamic from solid, Absolute Ethanol, 2-8° C., read-out: Solubility) is reported as 52.1 mg/mL and the solubility (2 °C, organic solvent or mixture, thermodynamic from solid, Benzyl alcohol, 2-8° C., read-out: Solubility) is reported as 177 mg/mL. It also gave a solubility (2 °C, organic solvent or mixture, thermodynamic from solid, Dimethyl acetamide (EP)-Finar, 2-8° C., read-out: Solubility) of 180 mg/mL, a solubility (2 °C, organic solvent or mixture, thermodynamic from solid, Dimethyl acetamide (EP)-Panreac, 2-8° C., read-out: Solubility) of 182 mg/mL and a solubility (2 °C, organic solvent or mixture, thermodynamic from solid, Dimethyl acetamide (high purity)-Finar, 2-8° C., read-out: Solubility) of 178 mg/mL. For the same compound, the solubility (2 °C, organic solvent or mixture, thermodynamic from solid, Dimethyl sulfoxide, 2-8° C., read-out: Solubility) was 182 mg/mL, the solubility (2 °C, organic solvent or mixture, thermodynamic from solid, PEG 300, 2-8° C., read-out: Solubility) was 60.2 mg/mL and the solubility (2 °C, organic solvent or mixture, thermodynamic from solid, PEG 400, 2-8° C., read-out: Solubility) was 32.8 mg/mL. It also gave a solubility (2 °C, organic solvent or mixture, thermodynamic from solid, Propylene glycol (USP)-Croda, 2-8° C., read-out: Solubility) of 154 mg/mL, a solubility (2 °C, organic solvent or mixture, thermodynamic from solid, Propylene glycol (USP)-Dow, 2-8° C., read-out: Solubility) of 154 mg/mL and a solubility (2 °C, organic solvent or mixture, thermodynamic from solid, Propylene glycol (USP)-Merck, 2-8° C., read-out: Solubility) of 159 mg/mL. The solubility (2 °C, organic solvent or mixture, thermodynamic from solid, Propylene glycol, 2-8° C., read-out: bendamustine HCl solubility) was roughly 155 mg/mL, the solubility (Isopropyl alcohol, 2-8° C.) was 4.5 mg/mL and the solubility (PEG 300, organic solvent or mixture, thermodynamic from solid, read-out: bendamustine HCl solubility) was roughly 60 mg/mL. It also gave a solubility (PEG 400, organic solvent or mixture, thermodynamic from solid, read-out: bendamustine HCl solubility) of roughly 30 mg/mL, a solubility (Propylene glycol (USP)-Croda, 23° C.) of 170.3 mg/mL and a solubility (ethanol, organic solvent or mixture, thermodynamic from solid, read-out: bendamustine HCl solubility) of 50 to 60 mg/mL. For the same compound, the solubility (isopropyl alcohol, organic solvent or mixture, thermodynamic from solid, read-out: bendamustine HCl solubility) was roughly 5 mg/mL, the solubility (organic solvent or mixture, thermodynamic from solid, 1-methyl-2-pyrrolidinone, 23° C., read-out: Solubility) was 180 mg/mL and the solubility (organic solvent or mixture, thermodynamic from solid, 1-methyl-2-pyrrolidinone, both temperatures tested, API completely dissolved, read-out: bendamustine HCl solubility) was greater than 180 mg/mL. For the same compound, the solubility (organic solvent or mixture, thermodynamic from solid, Absolute Ethanol, 23° C., read-out: Solubility) was 61.1 mg/mL, the solubility (organic solvent or mixture, thermodynamic from solid, Benzyl alcohol, 23° C., read-out: Solubility) was 174 mg/mL and the solubility (organic solvent or mixture, thermodynamic from solid, Benzyl alcohol, both temperatures tested, API completely dissolved, read-out: bendamustine HCl solubility) was greater than 180 mg/mL. For the same compound, the solubility (organic solvent or mixture, thermodynamic from solid, Dimethyl acetamide (EP)-Finar, 23° C., read-out: Solubility) was 174 mg/mL, the solubility (organic solvent or mixture, thermodynamic from solid, Dimethyl acetamide (EP)-Panreac, 23° C., read-out: Solubility) was 180 mg/mL and the solubility (organic solvent or mixture, thermodynamic from solid, Dimethyl acetamide (high purity)-Finar, 23° C., read-out: Solubility) was 179 mg/mL. The solubility (organic solvent or mixture, thermodynamic from solid, Dimethyl sulfoxide, 23° C., read-out: Solubility) was 181 mg/mL, the solubility (organic solvent or mixture, thermodynamic from solid, Isopropyl alcohol, 23° C., read-out: Solubility) was 6.7 mg/mL and the solubility (organic solvent or mixture, thermodynamic from solid, PEG 300, 23° C., read-out: Solubility) was 64.5 mg/mL. For the same compound, the solubility (organic solvent or mixture, thermodynamic from solid, PEG 400, 23° C., read-out: Solubility) was 34.4 mg/mL, the solubility (organic solvent or mixture, thermodynamic from solid, Propylene glycol (USP)-Dow, 23° C., read-out: Solubility) was 166 mg/mL and the solubility (organic solvent or mixture, thermodynamic from solid, Propylene glycol (USP)-Merck, 23° C., read-out: Solubility) was 172 mg/mL. The solubility (organic solvent or mixture, thermodynamic from solid, Propylene glycol, 23° C., read-out: bendamustine HCl solubility) was roughly 170 mg/mL, the solubility (organic solvent or mixture, thermodynamic from solid, dimethyl acetamide, both temperatures tested, API completely dissolved, read-out: bendamustine HCl solubility) was greater than 180 mg/mL and the solubility (organic solvent or mixture, thermodynamic from solid, dimethyl sulfoxide, both temperatures tested, API completely dissolved, read-out: bendamustine HCl solubility) was greater than 180 mg/mL.
